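Five concentrations, 48 hours, 96-well plates. Here, GI50 denotes the concentration required for 50% inhibition of growth.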 The source made the active and inactive calls. No stated cut-off is given here; in the data, active = GI50 up to about 1.1 µM and inactive = higher.
Assays:
Experiment in all cases: NCI anticancer screen, dose series, 48 h
[1] = test system: HT-29
[2] = test system: HCT-116
[3] = test system: HCC 2998
[4] = test system: SF-539
[5] = test system: SK-MEL-28
[6] = test system: NCI-H23
[7] = test system: OVCAR-8
[8] = test system: HOP-92
[9] = test system: Malme-3M
[10] = test system: 786-0
[11] = test system: SK-MEL-5
[12] = test system: SNB-19
[13] = test system: TK-10
[14] = test system: OVCAR-4
[15] = test system: CCRF-CEM
[16] = test system: UACC-62
[17] = test system: RPMI-8226

| Compound | GI50 [1] | GI50 [2] | GI50 [3] | GI50 [4] | GI50 [5] | GI50 [6] | GI50 [7] | GI50 [8] | GI50 [9] | GI50 [10] | GI50 [11] | GI50 [12] | GI50 [13] | GI50 [14] | GI50 [15] | GI50 [16] | GI50 [17] |
| --- | --- | --- | --- | --- | --- | --- | --- | --- | --- | --- | --- | --- | --- | --- | --- | --- | --- |
| CCCCCCCCCCC/C(=N/O)c1ccc(O)c2ncccc12 | 4.11 µM (inactive) | 6.64 µM (inactive) | 5.28 µM (inactive) | 2.02 µM (inactive) | 9.25 µM (inactive) | 10.4 µM (inactive) | 4.29 µM (inactive) | 0.275 µM (active) | 2.47 µM (inactive) | 10.6 µM (inactive) | 1.85 µM (inactive) | 5.74 µM (inactive) | 7.35 µM (inactive) | 2.61 µM (inactive) | – | – | – |
| COc1ccccc1NC(=O)C(=O)C(c1cnc2ccc([N+](=O)[O-])cc2n1)[N+](=O)[O-] (centres undefined) | > 100 µM (inactive) | > 100 µM (inactive) | 92 µM (inactive) | > 100 µM (inactive) | > 100 µM (inactive) | > 100 µM (inactive) | > 100 µM (inactive) | > 100 µM (inactive) | > 100 µM (inactive) | > 100 µM (inactive) | > 100 µM (inactive) | > 100 µM (inactive) | > 100 µM (inactive) | > 100 µM (inactive) | 26 µM (inactive) | 53 µM (inactive) | 25.2 µM (inactive) |
| Cc1cccc(C(C)C)c1NC(=O)CC1C(=O)Nc2ccccc2S1(=O)=O (centres undefined) | 12.6 µM (inactive) | 15.7 µM (inactive) | 22.9 µM (inactive) | 5.77 µM (inactive) | 17.7 µM (inactive) | 9.06 µM (inactive) | 14.4 µM (inactive) | 11.8 µM (inactive) | 16.3 µM (inactive) | 13.9 µM (inactive) | 12.3 µM (inactive) | 29.2 µM (inactive) | 29 µM (inactive) | 12.2 µM (inactive) | 7.24 µM (inactive) | 11.8 µM (inactive) | 3.14 µM (inactive) |
| COC(=O)CC(=O)C[P+](c1ccccc1)(c1ccccc1)c1ccccc1 | 121 µM (inactive) | 60.7 µM (inactive) | > 218 µM (inactive) | 197 µM (inactive) | 196 µM (inactive) | 141 µM (inactive) | 150 µM (inactive) | 102 µM (inactive) | 192 µM (inactive) | > 218 µM (inactive) | 158 µM (inactive) | > 218 µM (inactive) | > 218 µM (inactive) | – | 55.3 µM (inactive) | 178 µM (inactive) | 63.5 µM (inactive) |
| COc1ccc2nc3cc(Cl)ccc3c(NCCC(=O)OCC(O)C(O)C(O[C@H](C)C(=O)NC(C)C(=O)NC(CCC(N)=O)C(=O)OCc3ccccc3)C(C=O)NC(C)=O)c2c1 (some centres undefined) | 17.8 µM (inactive) | 18 µM (inactive) | 17.7 µM (inactive) | 16.8 µM (inactive) | 17.7 µM (inactive) | 14.4 µM (inactive) | 16 µM (inactive) | 17.8 µM (inactive) | > 100 µM (inactive) | 16.9 µM (inactive) | 16.6 µM (inactive) | 24.7 µM (inactive) | 22.8 µM (inactive) | 20 µM (inactive) | 23.2 µM (inactive) | 17.9 µM (inactive) | – |
| O=C(Nc1cc(Cl)c(Cl)cc1Cl)C(=O)C(C(=O)c1ccc2ccccc2c1)C1OC(=O)c2ccccc21 (centres undefined) | 18.2 µM (inactive) | 11 µM (inactive) | – | 3.39 µM (inactive) | 10.3 µM (inactive) | 3.66 µM (inactive) | 8 µM (inactive) | 1.96 µM (inactive) | 13.2 µM (inactive) | 8.11 µM (inactive) | 11.8 µM (inactive) | 11.6 µM (inactive) | – | > 10 µM (inactive) | – | 12.1 µM (inactive) | 11.9 µM (inactive) |
| Fc1cccc(C2SCc3nc4ccccc4n32)c1F (centres undefined) | 79.4 µM (inactive) | 48.5 µM (inactive) | > 100 µM (inactive) | > 100 µM (inactive) | – | 49.7 µM (inactive) | 69.3 µM (inactive) | 23 µM (inactive) | 38 µM (inactive) | 92.9 µM (inactive) | 21.6 µM (inactive) | > 100 µM (inactive) | 42 µM (inactive) | 42.1 µM (inactive) | 42 µM (inactive) | 63.5 µM (inactive) | 31.1 µM (inactive) |
| CCOC(=O)C1Nc2ccccc2[C@H]2OCC[C@@H]12 (some centres undefined) | > 100 µM (inactive) | > 100 µM (inactive) | > 100 µM (inactive) | > 100 µM (inactive) | > 100 µM (inactive) | > 100 µM (inactive) | > 100 µM (inactive) | – | > 100 µM (inactive) | > 100 µM (inactive) | > 100 µM (inactive) | > 100 µM (inactive) | > 100 µM (inactive) | > 100 µM (inactive) | > 100 µM (inactive) | > 100 µM (inactive) | – |
| COc1ccc(NC(=O)CC(=O)N/N=C/c2ccc(N(CCC#N)S(=O)(=O)c3ccccc3)cc2)cc1 | > 100 µM (inactive) | > 100 µM (inactive) | > 100 µM (inactive) | – | > 100 µM (inactive) | > 100 µM (inactive) | > 100 µM (inactive) | > 100 µM (inactive) | > 100 µM (inactive) | > 100 µM (inactive) | > 100 µM (inactive) | > 100 µM (inactive) | > 100 µM (inactive) | > 100 µM (inactive) | > 100 µM (inactive) | > 100 µM (inactive) | > 100 µM (inactive) |
| CCOC(=O)NN1C(=O)C(=P(c2ccccc2)(c2ccccc2)c2ccccc2)C(C(=O)OCC)=C1C | > 100 µM (inactive) | > 100 µM (inactive) | > 100 µM (inactive) | > 100 µM (inactive) | – | > 100 µM (inactive) | > 100 µM (inactive) | > 100 µM (inactive) | > 100 µM (inactive) | > 100 µM (inactive) | > 100 µM (inactive) | > 100 µM (inactive) | > 100 µM (inactive) | > 100 µM (inactive) | > 100 µM (inactive) | > 100 µM (inactive) | > 100 µM (inactive) |
| CSc1nc2c(nc(N)n2C2OCC(O)C(O)C2O)c(=O)n1C (centres undefined) | > 100 µM (inactive) | > 100 µM (inactive) | > 100 µM (inactive) | > 100 µM (inactive) | > 100 µM (inactive) | > 100 µM (inactive) | > 100 µM (inactive) | > 100 µM (inactive) | > 100 µM (inactive) | > 100 µM (inactive) | > 100 µM (inactive) | > 100 µM (inactive) | > 100 µM (inactive) | > 100 µM (inactive) | > 100 µM (inactive) | > 100 µM (inactive) | – |
| CCCCNC(=O)C1C2CCC(O2)C1C(=O)O (centres undefined) | 23.1 µM (inactive) | 12 µM (inactive) | 26.2 µM (inactive) | 21 µM (inactive) | 28 µM (inactive) | 29.4 µM (inactive) | 20.5 µM (inactive) | 12 µM (inactive) | 21.5 µM (inactive) | 16.1 µM (inactive) | 20.2 µM (inactive) | 23.7 µM (inactive) | 18.1 µM (inactive) | 29.6 µM (inactive) | – | 17.5 µM (inactive) | 20.9 µM (inactive) |
